{"source": "patent US4179565A", "about": "“2,5-Dimethyl-benzo[b]-thieno[2,3-f]morphan and precursors thereof” (priority 1977, dated 1979)", "key": {"I.C.R. Swiss albino mice [1]": {"system": "I.C.R. Swiss albino mice", "test": "Thermal analgesia, hot plate technique at 55° C.", "format": "in vivo", "conditions": "50mg/kg, intraperitoneal; for thermal analgesic activity (in words): compared with dextropropoxyphene / control; for Jumping time, mean ± S.E.M.: 30 minutes", "method": "The thermal analgesic effect was studied on I.C.R. Swiss albino mice. The hot plate technique was used at 55° C. Batches of 10 mice were made.\nThe products under study were administered intraperitoneally and after 30 minutes the mice were placed on the hot plate, counting the number of seconds they took to jump. Batches of control animals which are only injected with distilled water are used."}, "[2]": {"test": "Acute toxicity (LD50, Litchfield-Wilcoxon test)", "conditions": "mouse, in vivo, ip; intraperitoneal; deaths counted 48 hours after treatment; fasted mice", "method": "Acute toxicity studies were performed on I.C.R. Swiss albino mice of both sexes weighing 30±2 g, kept fasting for 24 hours prior to the experiment. The room temperature and relative humidity were kept constant. The products were administered intraperitoneally, counting the number of deaths 48 hours after the treatment. The calculation of lethal dose 50 (LD50) was made by the Litchfield-Wilcoxon test."}, "I.C.R. Swiss albino mice [3]": {"system": "I.C.R. Swiss albino mice", "test": "Chemical analgesia, acetic acid writhing technique", "format": "in vivo", "conditions": "25mg/kg, intraperitoneal; for analgesic activity, acetic acid writhing (in words): compared with dextropropoxyphene; for No. of writhes, mean ± S.E.M.: 20 minutes after acetic acid; for Significance of differences vs Dextropropoxyphene: No. of writhes", "method": "The analgesic effect was studied on I.C.R. Swiss albino mice with the acetic acid writhing technique. Batches of 10 mice were made.\nThe products under study were administered intraperitoneally and after 30 minutes 0.25 ml of 1% acetic acid are injected intraperitoneally. A batch of control animals which only receive acetic acid is used. The number of writhes in each mouse is counted 20 minutes after administration of the acetic acid."}, "[4]": {"conditions": "Table III, Control 48.8 ± 5.033"}, "[5]": {"conditions": "Table VI, Control 109.9 ± 6.362"}, "[6]": {"conditions": "Table VII, Control 109.9 ± 6.362"}}, "data": [{"smiles": "CN1CCC2(C)CC1Cc1c2sc2ccccc12", "note": "(racemic) [Product I, 2,5-dimethyl-benzo[b]thieno[2,3-f]morphan]", "values": [{"measurement": "thermal analgesic activity (in words)", "setting": "I.C.R. Swiss albino mice [1]", "result": "analgesic activity which is not significantly different from that of dextropropoxyphene"}, {"measurement": "Jumping time, mean ± S.E.M.", "setting": "I.C.R. Swiss albino mice [1]; Table II, Control 64 ± 7.919", "result": "168.67 ± 11.334", "unit": "s"}, {"measurement": "Significance of differences vs Dextropropoxyphene", "setting": "I.C.R. Swiss albino mice [1]; Table II, jumping time", "result": "N.S."}, {"measurement": "LD50 at 48 h", "setting": "[2]", "result": 35.2, "unit": "mg/kg"}, {"measurement": "analgesic activity, acetic acid writhing (in words)", "setting": "I.C.R. Swiss albino mice [3]", "result": "greater analgesic activity then dextropropoxyphene"}, {"measurement": "No. of writhes, mean ± S.E.M.", "setting": "I.C.R. Swiss albino mice [3]; Table V, Control 101.4 ± 8.973", "result": "3.1 ± 1.234"}]}, {"smiles": "CCC(=O)O[C@](Cc1ccccc1)(c1ccccc1)[C@H](C)CN(C)C", "note": "[Dextropropoxyphene, dextropropoxyphene, reference compound]", "values": [{"measurement": "Jumping time, mean ± S.E.M.", "setting": "I.C.R. Swiss albino mice [1]; Table II, Control 64 ± 7.919", "result": "164 ± 7.319", "unit": "s"}, {"measurement": "Jumping time, mean ± S.E.M.", "setting": "I.C.R. Swiss albino mice [1]; [4]", "result": "91.3 ± 7.894", "unit": "s"}, {"measurement": "Jumping time, mean ± S.E.M.", "setting": "I.C.R. Swiss albino mice [1]; Table IV, Control 48.8 ± 5.033", "result": "91.3 ± 7.894", "unit": "s"}, {"measurement": "No. of writhes, mean ± S.E.M.", "setting": "I.C.R. Swiss albino mice [3]; Table V, Control 101.4 ± 8.973", "result": "21.5 ± 5.929"}, {"measurement": "No. of writhes, mean ± S.E.M.", "setting": "I.C.R. Swiss albino mice [3]; [5]", "result": "27.8 ± 8.365"}, {"measurement": "No. of writhes, mean ± S.E.M.", "setting": "I.C.R. Swiss albino mice [3]; [6]", "result": "27.8 ± 8.365"}]}, {"smiles": "CC1=CC(Cc2csc3ccccc23)N(C)CC1", "note": "(stereo not drawn) [Product III, 2-(3-benzo[b]thienylmethyl)-1,4-dimethyl-1,2,5,6-tetrahydropyridine]", "values": [{"measurement": "thermal analgesic activity (in words)", "setting": "I.C.R. Swiss albino mice [1]", "result": "lacking thermal analgesic activity"}, {"measurement": "Jumping time, mean ± S.E.M.", "setting": "I.C.R. Swiss albino mice [1]; Table IV, Control 48.8 ± 5.033", "result": "48.9 ± 5.292", "unit": "s"}, {"measurement": "LD50 at 48 h", "setting": "[2]", "result": 275, "unit": "mg/kg"}, {"measurement": "analgesic activity, acetic acid writhing (in words)", "setting": "I.C.R. Swiss albino mice [3]", "result": "not significantly different from that of dextropropoxyphene"}, {"measurement": "No. of writhes, mean ± S.E.M.", "setting": "I.C.R. Swiss albino mice [3]; [6]", "result": "22.5 ± 6.263"}, {"measurement": "Significance of differences vs Dextropropoxyphene", "setting": "I.C.R. Swiss albino mice [3]; Table VII", "result": "N.S."}]}, {"smiles": "CC1=CCN(C)C(Cc2csc3ccccc23)C1", "note": "(stereo not drawn) [Product II, 2-(3-benzo[b]thienylmethyl)-1,4-dimethyl-1,2,3,6-tetrahydropyridine]", "values": [{"measurement": "thermal analgesic activity (in words)", "setting": "I.C.R. Swiss albino mice [1]", "result": "lacking thermal analgesic activity"}, {"measurement": "Jumping time, mean ± S.E.M.", "setting": "I.C.R. Swiss albino mice [1]; [4]", "result": "63 ± 8.368", "unit": "s"}, {"measurement": "LD50 at 48 h", "setting": "[2]", "result": 916, "unit": "mg/kg"}, {"measurement": "analgesic activity, acetic acid writhing (in words)", "setting": "I.C.R. Swiss albino mice [3]", "result": "not significantly different from that of dextropropoxyphene"}, {"measurement": "No. of writhes, mean ± S.E.M.", "setting": "I.C.R. Swiss albino mice [3]; [5]", "result": "41.2 ± 6.024"}, {"measurement": "Significance of differences vs Dextropropoxyphene", "setting": "I.C.R. Swiss albino mice [3]; Table VI", "result": "N.S."}]}]}
